We go through 23 compounds from PubChem BioAssay AID204 (DTP/NCI, 2004).

Molecules are shown by their SMILES. “And” between values parts separate entries of the source, which are not always exact repeats. Equal values may be shown once. Inconclusive results and toxic doses are left out.

The test system of the test is BDF1 mice, P288 methotrexate-resistant leukemia, survival T/C. Briefly: NCI In Vivo Anticancer Drug Screen. Data for tumor model P288 Lymphocytic Leukemia resistant to methotrexate; NSC 740 (intraperitoneal) in B6D2F1 (BDF1) mice. The conditions noted are these: endpoint: median survival time, higher = longer survival. The protocol: The antitumor activity of compounds was measured in mice bearing transplantable tumors. Survival or tumor size were measured and the results are expressed as the measurement made in the treated group (T) divided by the measurement made in the vehicle treated control group (C). The tumor model used in this assay is P288 Lymphocytic Leukemia resistant to methotrexate; NSC 740 (intraperitoneal) in B6D2F1 (BDF1) mice

The mark [1] stands for this setting: dose: 62.5 micrograms/kg/injection, schedule: Q01DX010 (ip), vehicle: saline.
The mark [2] stands for this setting: dose: 250.0 micrograms/kg/injection, schedule: Q01DX010 (ip), vehicle: saline.
Setting [3] is: dose: 20.0 mg/kg/injection, schedule: Q01DX010 (ip), vehicle: saline.
Where [4] appears, read: dose: 40.0 mg/kg/injection, schedule: Q01DX010 (ip), vehicle: saline.
Setting [5] is: dose: 80.0 mg/kg/injection, schedule: Q01DX010 (ip), vehicle: saline.
Setting [6] is: dose: 120.0 mg/kg/injection, schedule: Q01DX010 (ip), vehicle: saline.
Where [7] appears, read: dose: 5.0 mg/kg/injection, schedule: Q01DX010 (ip), vehicle: saline.
Setting [8] is: dose: 10.0 mg/kg/injection, schedule: Q01DX010 (ip), vehicle: saline.
[9] abbreviates: dose: 62.5 mg/kg/injection, schedule: Q01DX010 (ip), vehicle: saline.
Where [10] appears, read: dose: 125.0 mg/kg/injection, schedule: Q01DX010 (ip), vehicle: saline.
The mark [11] stands for this setting: dose: 250.0 mg/kg/injection, schedule: Q01DX010 (ip), vehicle: saline.
The mark [12] stands for this setting: dose: 500.0 mg/kg/injection, schedule: Q01DX010 (ip), vehicle: saline.

As for `CSCS(=O)C[C@H](CO)NC(=O)/C=C/c1c(C)[nH]c(=O)[nH]c1=O` (some centres not stated), the T/C was 109 % of control under setting [1]; 100 % of control (dose: 125.0 micrograms/kg/injection, schedule: Q01DX010 (ip), vehicle: saline); 100 % of control under setting [2]; 90 % of control (dose: 500.0 micrograms/kg/injection, schedule: Q01DX010 (ip), vehicle: saline).
For `OCC1OC(n2cnc3c(=S)nc[nH]c32)C(O)C1O` (configuration not stated), the T/C reads like this: under setting [3], 100 % of control and 105 % of control; under setting [4], 95 % of control and 105 % of control; under setting [5], 100 % of control and 110 % of control; (dose: 160.0 mg/kg/injection, schedule: Q01DX010 (ip), vehicle: saline) 100 % of control and 105 % of control.
Turning to `O=C(Nc1ccc(NC(=O)Nc2cccc(C3=NCCN3)c2)cc1)Nc1cccc(C2=NCCN2)c1`, the T/C runs as follows: (dose: 60.0 mg/kg/injection, schedule: Q01DX010 (ip), vehicle: saline) 200 % of control and 225 % of control; under setting [6], 250 % of control and 322 % of control; (dose: 240.0 mg/kg/injection, schedule: Q01DX010 (ip), vehicle: saline) 183 % of control and 235 % of control; (dose: 480.0 mg/kg/injection, schedule: Q01DX010 (ip), vehicle: saline) 100 % of control and 120 % of control.
On to `CN(C)c1ccc(Nc2c3ccccc3nc3ccccc23)cc1`, for which the T/C reads like this: (dose: 36.0 mg/kg/injection, schedule: Q01DX010 (ip), vehicle: saline) 95 % of control and 115 % of control; (dose: 54.0 mg/kg/injection, schedule: Q01DX010 (ip), vehicle: saline) 115 % of control and 116 % of control; under setting [6], 120 % of control.
Consider `O[C@H](CN1CC1)[C@@H](O)CN1CC1`, for which the T/C was 100 % of control under setting [1]; 155 % of control and 181 % of control under setting [2].
Turning to `CC/C(=C(/CC)c1ccc(O)cc1)c1ccc(O)cc1`, the T/C runs as follows: (dose: 12.5 mg/kg/injection, schedule: Q01DX010 (sc), vehicle: steriod suspending solution) 100 % of control and 110 % of control; (dose: 25.0 mg/kg/injection, schedule: Q01DX010 (sc), vehicle: steriod suspending solution) 105 % of control; (dose: 50.0 mg/kg/injection, schedule: Q01DX010 (sc), vehicle: steriod suspending solution) 100 % of control and 105 % of control; (dose: 100.0 mg/kg/injection, schedule: Q01DX010 (sc), vehicle: steriod suspending solution) 90 % of control and 100 % of control.
Regarding `CN(C)CC(=O)c1ccc(O)c(O)c1`, the T/C reads like this: (dose: 200.0 mg/kg/injection, schedule: Q01DX010 (ip), vehicle: saline) 110 % of control and 113 % of control; (dose: 300.0 mg/kg/injection, schedule: Q01DX010 (ip), vehicle: saline) 120 % of control and 122 % of control; (dose: 450.0 mg/kg/injection, schedule: Q01DX010 (ip), vehicle: saline) 115 % of control and 118 % of control; (dose: 675.0 mg/kg/injection, schedule: Q01DX010 (ip), vehicle: saline) 122 % of control.
`Cc1cc(N(CCCl)CCCl)ccc1N=Nc1ccccc1C(=O)O`: the T/C under setting [7] was 104 % of control and 105 % of control; the T/C under setting [8] is 109 % of control and 110 % of control; the T/C under setting [3] was 115 % of control.
Take `COc1cc(-c2ccc(Nc3ccccc3C(=O)O)c(OC)c2)ccc1Nc1ccccc1C(=O)O`: the T/C runs as follows: (dose: 25.0 mg/kg/injection, schedule: Q01DX010 (ip), vehicle: saline) 154 % of control; (dose: 50.0 mg/kg/injection, schedule: Q01DX010 (ip), vehicle: saline) 163 % of control; (dose: 100.0 mg/kg/injection, schedule: Q01DX010 (ip), vehicle: saline) 172 % of control.
Regarding `O=NN(CCCl)C(=O)NCCCl`, the T/C is 280 % of control and 300 % of control (dose: 6.25 mg/kg/injection, schedule: Q01DX010 (ip), vehicle: saline); 180 % of control (dose: 12.5 mg/kg/injection, schedule: Q01DX010 (ip), vehicle: saline).
Regarding `Cn1cnc([N+](=O)[O-])c1Sc1nc(N)nc2nc[nH]c12`, the T/C was 109 % of control (dose: 2.5 mg/kg/injection, schedule: Q01DX010 (ip), vehicle: saline); 90 % of control under setting [7]; 109 % of control under setting [8]; 109 % of control under setting [3].
As to `O=c1cn[nH]c(=O)[nH]1`, the T/C was 90 % of control and 110 % of control under setting [9]; 105 % of control and 110 % of control under setting [10]; 105 % of control and 120 % of control under setting [11]; 110 % of control and 120 % of control under setting [12].
For the compound `Clc1ccc(C(c2ccccc2Cl)C(Cl)Cl)cc1` (configuration not stated), the T/C runs as follows: (dose: 62.5 mg/kg/injection, schedule: Q01DX010 (sc), vehicle: steriod suspending solution) 109 % of control; (dose: 125.0 mg/kg/injection, schedule: Q01DX010 (sc), vehicle: steriod suspending solution) 100 % of control; (dose: 250.0 mg/kg/injection, schedule: Q01DX010 (sc), vehicle: steriod suspending solution) 109 % of control; (dose: 500.0 mg/kg/injection, schedule: Q01DX010 (sc), vehicle: steriod suspending solution) 100 % of control.
Consider `O=c1[nH]c(=O)n(C2CC(O)C(CO)O2)cc1F` (configuration not stated), for which the T/C is 95 % of control under setting [7]; 108 % of control and 111 % of control under setting [8]; 108 % of control and 115 % of control under setting [3]; 116 % of control and 123 % of control under setting [4]; 92 % of control under setting [5].
Take `S=P(N1CC1)(N1CC1)N1CC1`: the T/C (dose: 0.75 mg/kg/injection, schedule: Q01DX010 (ip), vehicle: saline) is 100 % of control and 111 % of control; the T/C (dose: 1.5 mg/kg/injection, schedule: Q01DX010 (ip), vehicle: saline) was 111 % of control; the T/C (dose: 6.0 mg/kg/injection, schedule: Q01DX010 (ip), vehicle: saline) is 116 % of control and 120 % of control.
Turning to `Nc1nc2n[nH]nc2c(=O)[nH]1`, the T/C is, setting by setting: (dose: 25.0 mg/kg/injection, schedule: Q01DX010 (ip), vehicle: alkali diluted with saline) 110 % of control; (dose: 50.0 mg/kg/injection, schedule: Q01DX010 (ip), vehicle: alkali diluted with saline) 112 % of control.
On to `OCC1OC(n2cnc3c(Cl)ncnc32)C(O)C1O` (configuration not stated), for which the T/C was 95 % of control and 100 % of control under setting [9]; 90 % of control and 100 % of control under setting [10]; 90 % of control and 105 % of control under setting [11]; 90 % of control under setting [12].
On to `CO[C@H](C(=O)[C@@H](O)[C@@H](C)O)[C@@H]1Cc2cc3cc(OC4CC(OC5CC(O)C(O)C(C)O5)C(O)C(C)O4)c(C)c(O)c3c(O)c2C(=O)[C@H]1OC1CC(OC2CC(OC3CC(C)(O)C(O)C(C)O3)C(O)C(C)O2)C(O)C(C)O1` (some centres not stated), for which the T/C is, setting by setting: (dose: 0.25 mg/kg/injection, schedule: Q01DX010 (ip), vehicle: saline) 95 % of control; (dose: 0.5 mg/kg/injection, schedule: Q01DX010 (ip), vehicle: saline) 95 % of control; (dose: 1.0 mg/kg/injection, schedule: Q01DX010 (ip), vehicle: saline) 104 % of control.
For the compound `CCOC(N)=O`, the T/C runs as follows: under setting [10], 100 % of control; under setting [11], 100 % of control; under setting [12], 100 % of control; (dose: 1000.0 mg/kg/injection, schedule: Q01DX010 (ip), vehicle: saline) 87 % of control and 88 % of control.
In the case of `CCCSc1ncnc2nc[nH]c12`, the T/C (dose: 15.6 mg/kg/injection, schedule: Q01DX010 (ip), vehicle: saline) is 104 % of control; the T/C (dose: 31.3 mg/kg/injection, schedule: Q01DX010 (ip), vehicle: saline) is 90 % of control and 100 % of control; the T/C under setting [9] is 90 % of control and 104 % of control; the T/C under setting [10] was 90 % of control.
For `N=C(N)c1ccc(Nc2ccc(C(=N)N)cc2)cc1`, under “dose: 12.0 mg/kg/injection, schedule: Q01DX010 (ip), vehicle: saline”, the T/C was 90 % of control.
As to `Nc1nc(=S)c2[nH]cnc2[nH]1`, the T/C (dose: 1.25 mg/kg/injection, schedule: Q01DX010 (ip), vehicle: other) is 88 % of control and 118 % of control; the T/C (dose: 2.5 mg/kg/injection, schedule: Q01DX010 (ip), vehicle: other) is 111 % of control and 112 % of control; the T/C (dose: 5.0 mg/kg/injection, schedule: Q01DX010 (ip), vehicle: other) was 111 % of control.
As to `CC(CCC(C)OS(C)(=O)=O)OS(C)(=O)=O` (configuration not stated), the T/C runs as follows: (dose: 4.0 mg/kg/injection, schedule: Q01DX010 (ip), vehicle: saline) 95 % of control; (dose: 8.0 mg/kg/injection, schedule: Q01DX010 (ip), vehicle: saline) 87 % of control and 95 % of control; (dose: 16.0 mg/kg/injection, schedule: Q01DX010 (ip), vehicle: saline) 95 % of control and 100 % of control.
